Assay results published in PMC12607891, “A broadly conserved fungal chorismate mutase targets the plant shikimate pathway to regulate salicylic acid production and other secondary metabolites” (mBio, 2025).

What was measured:
AtCM1 = target: T1, AtCM1 (Arabidopsis thaliana, UniProt P42738); assay: absorbance at […] nm, prephenate converted to phenylpyruvate; format: biochemical; conditions: chorismate mutase activity assay; conditions as in cited procedure
T1 construct: gene CM1; His-tagged, pET, E. coli BL21, Ni-NTA
T1 sequence (P42738 66-340): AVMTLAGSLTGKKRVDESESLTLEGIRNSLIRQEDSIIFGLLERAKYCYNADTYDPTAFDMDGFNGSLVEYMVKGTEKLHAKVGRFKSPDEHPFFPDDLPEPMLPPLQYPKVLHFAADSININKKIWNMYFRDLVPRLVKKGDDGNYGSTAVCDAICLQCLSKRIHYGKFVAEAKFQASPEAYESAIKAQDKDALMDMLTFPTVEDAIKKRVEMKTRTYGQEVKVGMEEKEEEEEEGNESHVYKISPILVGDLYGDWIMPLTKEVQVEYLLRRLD

AtCM3 = target: T2, AtCM3 (Arabidopsis thaliana, UniProt Q9C544); assay: as above; format: biochemical; conditions: chorismate mutase activity assay; conditions as in cited procedure
T2 construct: gene CM3; His-tagged, pET, E. coli BL21, Ni-NTA
T2 sequence (Q9C544 48-316): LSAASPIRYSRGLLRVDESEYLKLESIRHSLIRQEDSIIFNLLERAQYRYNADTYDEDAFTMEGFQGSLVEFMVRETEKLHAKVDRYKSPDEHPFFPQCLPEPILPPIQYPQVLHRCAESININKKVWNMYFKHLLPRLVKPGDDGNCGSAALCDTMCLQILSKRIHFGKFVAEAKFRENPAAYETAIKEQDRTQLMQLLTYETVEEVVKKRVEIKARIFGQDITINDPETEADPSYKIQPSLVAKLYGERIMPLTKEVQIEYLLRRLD

Cmu1 = target: T3, Cmu1 (Mycosarcoma maydis, UniProt A0A0D1DWQ2); assay: as above; format: biochemical; conditions: weak chorismate mutase activity assay; conditions as in cited procedure
T3 construct: His-tagged, pET, E. coli BL21, Ni-NTA
T3 sequence (A0A0D1DWQ2 22-290): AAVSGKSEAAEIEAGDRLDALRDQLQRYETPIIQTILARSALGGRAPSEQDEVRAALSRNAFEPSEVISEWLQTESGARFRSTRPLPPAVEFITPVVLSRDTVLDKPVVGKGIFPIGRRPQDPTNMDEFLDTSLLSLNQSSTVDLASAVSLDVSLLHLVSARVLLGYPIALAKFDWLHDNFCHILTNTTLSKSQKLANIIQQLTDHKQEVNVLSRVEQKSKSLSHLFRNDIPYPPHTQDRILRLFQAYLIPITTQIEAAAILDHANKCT

SsCM1 = target: T4, SsCM1 (Sclerotinia sclerotiorum, UniProt A7F9N9); assay: as above; format: biochemical; conditions: weak chorismate mutase activity assay; conditions as in cited procedure
T4 construct: gene SS1G_14320; His-tagged, pET, E. coli BL21, Ni-NTA
T4 sequence (A7F9N9 entry or part of it): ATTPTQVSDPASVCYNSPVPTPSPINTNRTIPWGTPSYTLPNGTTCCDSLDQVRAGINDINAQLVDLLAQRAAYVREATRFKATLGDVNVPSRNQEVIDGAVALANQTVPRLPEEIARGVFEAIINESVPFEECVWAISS

AtCM2 = target: T5, AtCM2 (Arabidopsis thaliana, UniProt Q9S7H4); assay: as above; format: biochemical; conditions: chorismate mutase activity assay; conditions as in cited procedure
T5 construct: gene CM2; His-tagged, pET, E. coli BL21, Ni-NTA; cytosolic enzyme
T5 sequence (Q9S7H4 1-265): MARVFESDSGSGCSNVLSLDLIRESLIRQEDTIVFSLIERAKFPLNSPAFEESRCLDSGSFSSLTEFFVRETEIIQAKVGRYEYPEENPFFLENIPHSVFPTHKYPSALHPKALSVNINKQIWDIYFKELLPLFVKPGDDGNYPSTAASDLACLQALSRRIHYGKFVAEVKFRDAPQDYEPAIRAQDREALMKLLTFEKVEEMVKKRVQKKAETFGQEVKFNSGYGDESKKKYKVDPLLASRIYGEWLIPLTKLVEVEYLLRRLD

SsCM1 ΔSP/cTP1-66 = target: T6, SsCM1 ΔSP/cTP1-66 (Sclerotinia sclerotiorum, UniProt A7F9N9); assay: HPLC of salicylic acid made in E. coli KRX expressing the protein; format: cell-based; conditions: endogenous isochorismate of E. coli; 24 °C overnight, IPTG and rhamnose induction; isochorismate pyruvate lyase activity
T6 construct: gene SS1G_14320; residues 1-66 (signal peptide and chloroplast targeting peptide) removed; codon-optimized, pET28a, in E. coli KRX cells
T6 sequence (A7F9N9 entry or part of it, stated change not applied): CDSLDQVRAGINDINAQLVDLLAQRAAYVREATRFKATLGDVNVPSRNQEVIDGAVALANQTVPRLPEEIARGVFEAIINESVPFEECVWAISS

`C=C(O[C@@H]1C=C(C(=O)O)C=C[C@H]1O)C(=O)O` [chorismate] was tested, and the “absorbance at 320 nm, prephenate converted to phenylpyruvate” value (from here on “absorbance at 320 nm”) (AtCM1) was “all tested chorismate mutases are able to convert chorismate into prephenate”, the “absorbance at 320 nm” value (AtCM3) was “all tested chorismate mutases are able to convert chorismate into prephenate” and the “absorbance at 320 nm” value (Cmu1) was “all tested chorismate mutases are able to convert chorismate into prephenate”. For the same molecule, the “absorbance at 320 nm” value (SsCM1) was “all tested chorismate mutases are able to convert chorismate into prephenate” and the “absorbance at 320 nm” value (AtCM2) was “all tested chorismate mutases are able to convert chorismate into prephenate”.

With `C=C(O[C@H]1C=CC=C(C(=O)O)[C@@H]1O)C(=O)O` [isochorismate] the “HPLC of salicylic acid made in E. coli KRX expressing the protein” value (SsCM1 ΔSP/cTP1-66) was “SsCM1 possesses some IPL activity when expressed in E. coli”.
